These results are taken from patent publication US20260034091A1, “Compositions and Methods for Treating Metabolic Disorders” (The Regents of the University of California, priority 2022, published 2026).

Data set [1] concerns PPAR signaling pathway. As to the kind of experiment: Transcriptional analysis of liver samples from 60% HFD mouse model of diet induced obesity. It counts as in vivo, C57BL/6J male mice. The procedure: Six-week old C57BL/6J male mice were fed with a 60 kcal % fat diet (Research Diets A12492i) for seven weeks before introduction of either control or 125 mg/kg, BID, initial loading dose of TOFA daily via controlled oral gavage for one week (FIG. 2A). Mice were then treated with either vehicle (control) or 62.5 mg/kg, BID, maintenance dose of TOFA daily via oral gavage for three additional weeks. Upon study termination at 11 weeks, liver samples were collected. Total RNA was extracted from liver tissues (Qiagen RNeasy kit 74106), cDNA libraries were constructed (Roche KAPA HyperPrep kit), sequenced on the NovaSeq6000 platform (Novogene), and a downstream analysis pipeline was performed. Differentially expressed genes (DEGs) were defined by at least one log2-fold change (2-fold in linear scale) with an FDR cutoff of 0.05. For validation, total RNA was used to prepare CDNA (BioRAD iScript™ Reverse Transcription) according to manufacturer's protocol and qPCR was performed with fast SYBR Green Mix (ThermoFisher A25742) on the QuantStudio6 System (Applied Biosystems).

The test system of data set [2] is CDAHFD-induced late stage NAFLD/NASH in mice. Description: Benchmark study against Firsocostat and Fenofibrate in CDAHFD-induced late stage NAFLD/NASH. It is filed as in vivo, C57BL/6J male mice. The settings on record: QD oral gavage four weeks. How it is done: Six-week-old C57BL/6J male mice were fed with a L-amino acid diet with 60 kcal % fat with 0.1% methionine and no added choline (CDAHFD; Research Diets A06071302i) for eight weeks. Mice were randomly assigned to treatment groups of either a vehicle (control), 250 mg/kg of TOFA, 5 mg/kg of Firsocostat (Gilead Sciences), 50 mg/kg of Fenofibrate, or a combined dose of 5 mg/kg Firsocostat and 50 mg/kg Fenofibrate. All treatments were delivered QD by oral gavage for an additional four weeks. Mice weights and food intake were monitored during the treatment time course. Upon study termination at 12 weeks, liver and serum samples were collected. Serum liver damage biomarkers, ALT and AST, were measured by commercially available kits (abcam 105134 and abcam 105135, respectively). Hepatic and serum triglyceride levels were measured from a commercially available kit (abcam65336). Total RNA was extracted from liver tissues (Qiagen RNeasy kit 74106), and cDNA was prepared (BioRAD iScript™ Reverse Transcription) according to manufacturer's protocols. Quantitative PCR (qPCR) was performed with fast SYBR Green Mix (ThermoFisher A25742) on the QuantStudio6 System (Applied Biosciences). Protein expression levels of liver samples were measured by western blot using antibodies against VLDLR (AF2258, 1:2000), CPT1A (CST12252, 1:1000) and Histone H3 (CST9715, 1:1000). Membranes were developed using a HRP secondary antibody (1:5000) and visualized using an enhanced chemiluminescent HRP substrate (Thermo34577). Additional liver samples were fixed in 4% paraformaldehyde and embedded in paraffin blocks for sectioning and subsequently stained with hematoxylin and eosin (H&E).

For data set [3], the system named is 60% HFD diet-induced obesity with PPARA KO. As to the kind of experiment: TOFA in genetic PPARA knockout mice, 60% HFD diet-induced obesity (DIO) model. It counts as in vivo, PPARA knockout (PPARA KO) male mice. How it is done:
Six-week-old genetic PPARA knockout (PPARA KO) male mice were fed with a L-amino acid diet with 60 kcal % fat with 0.1% methionine and no added choline (CDAHFD; Research Diets A06071302i) for three weeks or fed with a 60 kcal % fat diet (DIO; Research Diets A12492i) for eight weeks before introduction of either vehicle (control) or 125 mg/kg of TOFA, BID, via oral gavage for an additional two weeks (FIG. 11A and FIG. 11J, respectively). C57BL/6J (WT) mice were fed with the CDAHFD and underwent similar experimental conditions and time course. Mice weights and adverse events were monitored during the treatment time course. Upon study termination, serum and liver samples were collected. Serum liver damage biomarkers, ALT and AST, were measured by commercially available kits (abcam105134 and abcam 105135, respectively). Hepatic and serum triglyceride levels were measured from a commercially available kit (abcam65336). Total RNA was extracted from liver tissues (Qiagen RNeasy kit 74106), and cDNA was prepared (BioRAD iScript™M Reverse Transcription) according to manufacturer's protocols. Quantitative PCR (qPCR) was performed with fast SYBR Green Mix (ThermoFisher A25742) on the QuantStudio6 System (Applied Biosciences). Protein expression levels of liver samples were measured by western blot using antibodies against ACC1/2 (CST3662, 1:1000), VLDLR (AF2258, 1:2000), CPT1A (CST12252, 1:1000), PPARA (abcam126285, 1:1000) and beta-tubulin (CST2146, 1:1000). Membranes were developed using a HRP secondary antibody (1:5000) and visualized using an enhanced chemiluminescent HRP substrate (Thermo34577). Additional liver samples were fixed in 4% paraformaldehyde and embedded in paraffin blocks for sectioning and subsequently stained with hematoxylin and eosin (H&E). Frozen fresh liver tissue was embedded in OCT, sectioned, and subsequently stained with Oil Red O.

The mark [4] stands for this setting: 125 mg/kg BID 1 week then 62.5 mg/kg BID 3 weeks, oral gavage.

As to `CCCCCCCCCCCCCCOc1ccc(C(=O)O)o1` [TOFA, 5-(Tetradecyloxy)-2-furoic acid], in data set [1] (setting [4]), the “genes in the PPAR signaling pathway (BioPlanet 2019 database)” value is listed as “upregulated various genes under PPAR transcriptional control”, the “highest upregulated genes (RNAseq of liver)” value is on record as “canonical PPAR-alpha target genes” and the “transcriptional regulatory relationship analysis of upregulated genes (TRRUST Transcription Factors 2019)” value is “PPARA is one of the major acting factors in transcriptional regulation”. In data set [1] (liver mRNA relative to r18s mRNA), the “downstream PPAR target genes by RT-qPCR (fatty acid beta-oxidation, acyl-CoA processing, lipoprotein uptake and metabolism)” value is given as “upregulated”. The food intake result in data set [2] is on record as “not attributed to changes in food intake”. For the same molecule, in data set [2] (TOFA 250 mg/kg), the liver damage entry is “largely decreased liver damage relative to vehicle control treatment at comparable, or stronger, degrees than Firsocostat, Fenofibrate, or the combination of the two agents”; the liver triglyceride levels entry is “strong decrease in liver triglyceride levels relative to Firsocostat treatments and vehicle control treatment”. Moreover, the body weight result in data set [2] (TOFA 250 mg/kg, Firsocostat 5 mg/kg, Fenofibrate 50 mg/kg) is recorded as “significant weight loss”. Further, in data set [2] (liver mRNA), the “PPARA downstream targets Vldlr and Cpt1a (RT-qPCR)” value is recorded as “unique increase”; the “genes involved in inflammation (Il1b, Il6) and collagen synthesis (Col1a1, Col3a) by RT-qPCR” value is reported as “specific, comparable response”. Moreover, the “protein expression levels of VLDLR and CPT1A (western blot)” value in data set [2] (liver samples) was “increased protein expression levels of VLDLR and CPT1A to higher degrees than the other treatment regimens”. Further, the “steatosis (H&E staining)” value in data set [2] (liver sections) was “decreased levels of steatosis”. Moreover, the “body weight upon treatment start” value in data set [3] (125 mg/kg BID oral gavage) is “decrease in weight”. In data set [3] (125 mg/kg BID, two weeks), the “Vldlr mRNA (RT-qPCR)” value is on record as “blunted response”, the “hepatic steatosis (H&E-stained liver sections)” value was “minimal changes in hepatic steatosis” and the “serum triglyceride (serum lipid levels)” value was “elevated serum lipid levels”. In data set [3] (125 mg/kg BID, two-week treatment period), the adverse events result is reported as “Adverse events were observed”.
